Data from patent US8952024B2, “Herbicidal pyrimidone derivatives” (E I du Pont de Nemours and Company, priority 2009, dated 2015).

Legend:
Test in all cases: Test B pre-/postemergence plant response
Format in all cases: in vivo
[1] = test system: cocklebur (Xanthium strumarium)
In short: (§1)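 Test compounds, formulated in a non-phytotoxic solvent mixture with surfactant, are applied to the soil surface (loam and sand blend) right after seeding, or sprayed over plants at the 1- to 4-leaf stage grown in peat moss/vermiculite medium. After 13 to 15 days under glasshouse conditions, each species is scored visually from 0 (no effect) to 100 (complete control) against controls.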

wild oat (Avena fatua) = test system: wild oat (Avena fatua)
In short: as §1

[2] = test system: large crabgrass (Digitaria sanguinalis)
In short: as §1

[3] = test system: yellow nutsedge (Cyperus esculentus)
In short: as §1

kochia (Kochia scoparia) = test system: kochia (Kochia scoparia)
In short: as §1

[4] = test system: lambsquarters (Chenopodium album)
In short: as §1

[5] = test system: woolly cupgrass (Eriochloa villosa)
In short: as §1

[6] = test system: Surinam grass (Brachiaria decumbens)
In short: as §1

[7] = 16 g ai/ha, Postemergence, 0 to 100 scale
[8] = Postemergence, 31 g ai/ha, 0 to 100 scale (0 no effect, 100 complete control)
[9] = Postemergence, 125 g ai/ha, scale 0 to 100 (0 no effect, 100 complete control)
[10] = 31 g ai/ha, postemergence, scale 0 to 100, 0 is no effect, 100 is complete control
[11] = 62 g ai/ha, postemergence, 0 is no effect, 100 is complete control, 13 to 15 days
[12] = Postemergence, 125 g ai/ha, visual rating after 13 to 15 days, scale 0 (no effect) to 100 (complete control)
[13] = Postemergence, 250 g ai/ha, scale 0 to 100 (0 no effect, 100 complete control)
[14] = Postemergence, 250 g ai/ha, scale 0 to 100 (0 no effect, 100 complete control), 13 to 15 days
[15] = Postemergence, 125 g ai/ha, scale 0 (no effect) to 100 (complete control), 13 to 15 days
[16] = Postemergence, 62 g ai/ha, scale 0 to 100 (0 no effect, 100 complete control)

Structure (SMILES): O=C1CCCC(O)=C1C(=O)c1cnc(-c2ccccc2)n(C2CC[S+]([O-])CC2)c1=O (mixture of isomers) [Compound 169, 5-[(2-hydroxy-6-oxo-1-cyclohexen-1-yl)carbonyl]-2-phenyl-3-(trans/cis-tetrahydro-1-oxido-2H-thiopyran-4-yl)-4(3H)-pyrimidinone]
- Plant response rating, Cocklebur [1, 7]: 100
- Plant response rating, Cocklebur [1, 8]: 100
- Plant response rating, Cocklebur [1, 9]: 100
- Plant response rating, Oat, Wild (wild oat (Avena fatua); [7]): 0
- Plant response rating, Oat, Wild (wild oat (Avena fatua); [8]): 0
- Plant response rating, Oat, Wild (wild oat (Avena fatua); [9]): 85
- Plant response rating, Crabgrass, Large [2, 7]: 75
- Plant response rating, Crabgrass, Large [2, 8]: 85
- Plant response rating, Crabgrass, Large [2, 9]: 100
- Plant response rating, Nutsedge, Yellow [3, 7]: 0
- Plant response rating, Nutsedge, Yellow [3, 8]: 0
- Plant response rating, Nutsedge, Yellow [3, 9]: 55
- Plant response rating, Kochia (kochia (Kochia scoparia); [7]): 100
- Plant response rating, Kochia (kochia (Kochia scoparia); [8]): 100
- Plant response rating, Kochia (kochia (Kochia scoparia); [9]): 100
- Plant response rating, Lambsquarters [4, 7]: 95
- Plant response rating, Lambsquarters [4, 8]: 100
- Plant response rating, Lambsquarters [4, 9]: 100
- Plant response rating, Cupgrass, Woolly [5, 7]: 75
- Plant response rating, Cupgrass, Woolly [5, 8]: 85
- Plant response rating, Cupgrass, Woolly [5, 9]: 100

Structure (SMILES): O=C1CCCC(O)=C1C(=O)c1cnc(-c2ccc(Br)cc2)n(-c2ccccc2)c1=O [Compound 70]
- Plant response rating, Cocklebur [1, 10]: 0
- Cocklebur plant response rating (0 to 100 scale) [1, 11]: 0
- Plant response rating, Cocklebur [1, 12]: 40
- Plant response rating, Cocklebur [1, 13]: 40
- Plant response rating, Oat, Wild (wild oat (Avena fatua); [10]): 55
- Oat, Wild plant response rating (0 to 100 scale) (wild oat (Avena fatua); [11]): 70
- Plant response rating, Oat, Wild (wild oat (Avena fatua); [12]): 90
- Plant response rating, Oat, Wild (wild oat (Avena fatua); [13]): 95
- Plant response rating, Crabgrass, Large [2, 10]: 80
- Crabgrass, Large plant response rating (0 to 100 scale) [2, 11]: 90
- Plant response rating, Crabgrass, Large [2, 12]: 95
- Plant response rating, Crabgrass, Large [2, 13]: 100
- Plant response rating, Nutsedge, Yellow [3, 10]: 10
- Nutsedge, Yellow plant response rating (0 to 100 scale) [3, 11]: 15
- Plant response rating, Nutsedge, Yellow [3, 12]: 40
- Plant response rating, Nutsedge, Yellow [3, 13]: 60
- Plant response rating, Kochia (kochia (Kochia scoparia); [10]): 65
- Kochia plant response rating (0 to 100 scale) (kochia (Kochia scoparia); [11]): 65
- Plant response rating, Kochia (kochia (Kochia scoparia); [12]): 75
- Plant response rating, Kochia (kochia (Kochia scoparia); [13]): 98
- Plant response rating, Surinam Grass [6, 10]: 65
- Surinam Grass plant response rating (0 to 100 scale) [6, 11]: 65
- Plant response rating, Surinam Grass [6, 12]: 95
- Plant response rating, Surinam Grass [6, 13]: 100
- Plant response rating, Lambsquarters [4, 10]: 85
- Lambsquarters plant response rating (0 to 100 scale) [4, 11]: 98
- Plant response rating, Lambsquarters [4, 12]: 100
- Plant response rating, Lambsquarters [4, 13]: 100
- Plant response rating, Cupgrass, Woolly [5, 10]: 45
- Cupgrass, Woolly plant response rating (0 to 100 scale) [5, 11]: 65
- Plant response rating, Cupgrass, Woolly [5, 12]: 90
- Plant response rating, Cupgrass, Woolly [5, 13]: 90

Structure (SMILES): CCCn1c(-c2cc(Cl)cc(Cl)c2)ncc(C(=O)C2=C(O)CCCC2=O)c1=O [Compound 173]
- Plant response rating, Cocklebur [1, 8]: 60
- Plant response rating, Cocklebur [1, 9]: 100
- Plant response rating, Cocklebur [1, 14]: 100
- Plant response rating, Oat, Wild (wild oat (Avena fatua); [8]): 50
- Plant response rating, Oat, Wild (wild oat (Avena fatua); [9]): 70
- Plant response rating, Oat, Wild (wild oat (Avena fatua); [14]): 85
- Plant response rating, Crabgrass, Large [2, 8]: 70
- Plant response rating, Crabgrass, Large [2, 9]: 95
- Plant response rating, Crabgrass, Large [2, 14]: 100
- Plant response rating, Nutsedge, Yellow [3, 8]: 45
- Plant response rating, Nutsedge, Yellow [3, 9]: 60
- Plant response rating, Nutsedge, Yellow [3, 14]: 75
- Plant response rating, Kochia (kochia (Kochia scoparia); [8]): 65
- Plant response rating, Kochia (kochia (Kochia scoparia); [9]): 98
- Plant response rating, Kochia (kochia (Kochia scoparia); [14]): 100
- Plant response rating, Lambsquarters [4, 8]: 98
- Plant response rating, Lambsquarters [4, 9]: 100
- Plant response rating, Lambsquarters [4, 14]: 100
- Plant response rating, Cupgrass, Woolly [5, 8]: 85
- Plant response rating, Cupgrass, Woolly [5, 9]: 100
- Plant response rating, Cupgrass, Woolly [5, 14]: 100

Structure (SMILES): CCCCn1c(-c2ccccc2)ncc(C(=O)C2=C(O)C3CCC(C3)C2=O)c1=O (stereo not drawn) [Compound 240]
- Plant response rating, Oat, Wild (wild oat (Avena fatua); [8]): 25
- Plant response rating, Oat, Wild (wild oat (Avena fatua); [15]): 45
- Plant response rating, Oat, Wild (wild oat (Avena fatua); [14]): 60
- Plant response rating, Oat, Wild (wild oat (Avena fatua); [16]): 40
- Plant response rating, Crabgrass, Large [2, 8]: 80
- Plant response rating, Crabgrass, Large [2, 15]: 100
- Plant response rating, Crabgrass, Large [2, 14]: 100
- Plant response rating, Crabgrass, Large [2, 16]: 98
- Plant response rating, Nutsedge, Yellow [3, 8]: 10
- Plant response rating, Nutsedge, Yellow [3, 15]: 20
- Plant response rating, Nutsedge, Yellow [3, 14]: 45
- Plant response rating, Nutsedge, Yellow [3, 16]: 15
- Plant response rating, Kochia (kochia (Kochia scoparia); [8]): 80
- Plant response rating, Kochia (kochia (Kochia scoparia); [15]): 100
- Plant response rating, Kochia (kochia (Kochia scoparia); [14]): 100
- Plant response rating, Kochia (kochia (Kochia scoparia); [16]): 98
- Plant response rating, Surinam Grass [6, 8]: 95
- Plant response rating, Surinam Grass [6, 15]: 100
- Plant response rating, Surinam Grass [6, 14]: 100
- Plant response rating, Surinam Grass [6, 16]: 98
- Plant response rating, Lambsquarters [4, 8]: 98
- Plant response rating, Lambsquarters [4, 15]: 100
- Plant response rating, Lambsquarters [4, 14]: 100
- Plant response rating, Lambsquarters [4, 16]: 100
- Plant response rating, Cupgrass, Woolly [5, 8]: 98
- Plant response rating, Cupgrass, Woolly [5, 15]: 100
- Plant response rating, Cupgrass, Woolly [5, 14]: 100
- Plant response rating, Cupgrass, Woolly [5, 16]: 100
